Structures can show the parent of a compound that is named as a salt.
Tests used:
human plasma = settings: comparators in clinical trials; cited from earlier work
Human FVIIa = Human FVIIa (Homo sapiens, UniProt P08709); assay: Chromogenic substrate hydrolysis assay, FVIIa; format: biochemical; settings: FXa over Human FVIIa
Human FXIa = Human FXIa (Homo sapiens, UniProt P03951); assay: Chromogenic substrate hydrolysis assay, FXIa; format: biochemical; settings: FXa over Human FXIa
Bovine Trypsin = molecular target: T1, Bovine Trypsin (Bos taurus, UniProt P00760); assay: Chromogenic substrate hydrolysis assay, trypsin; format: biochemical
T1 sequence (P00760 24-246): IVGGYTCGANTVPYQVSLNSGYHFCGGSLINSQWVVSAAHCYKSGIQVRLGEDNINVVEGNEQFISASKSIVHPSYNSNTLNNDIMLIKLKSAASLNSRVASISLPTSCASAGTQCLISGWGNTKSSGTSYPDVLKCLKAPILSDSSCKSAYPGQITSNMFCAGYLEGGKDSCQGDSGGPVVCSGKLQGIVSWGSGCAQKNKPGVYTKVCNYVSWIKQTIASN

Human FIXa = Human FIXa (Homo sapiens, UniProt P00740); assay: Chromogenic substrate hydrolysis assay, FIXa; format: biochemical; settings: FXa over Human FIXa
Human FIIa = Human FIIa (Homo sapiens, UniProt P00734); assay: Chromogenic substrate hydrolysis assay, FIIa; format: biochemical; settings: FXa over Human FIIa
human FXa = human FXa (Homo sapiens, UniProt P00742); assay: Direct inhibition of FXa, chromogenic substrate hydrolysis assay; format: biochemical
Bovine Chymotrypsin = Bovine Chymotrypsin (Bos taurus, UniProt P00766); assay: Chromogenic substrate hydrolysis assay, chymotrypsin; format: biochemical; settings: FXa over chymotrypsin
Human FXIIa = molecular target: T2, Human FXIIa (Homo sapiens, UniProt P00748); assay: Chromogenic substrate hydrolysis assay, FXIIa; format: biochemical; settings: FXa over Human FXIIa
T2 sequence (P00748 373-615 limits assumed): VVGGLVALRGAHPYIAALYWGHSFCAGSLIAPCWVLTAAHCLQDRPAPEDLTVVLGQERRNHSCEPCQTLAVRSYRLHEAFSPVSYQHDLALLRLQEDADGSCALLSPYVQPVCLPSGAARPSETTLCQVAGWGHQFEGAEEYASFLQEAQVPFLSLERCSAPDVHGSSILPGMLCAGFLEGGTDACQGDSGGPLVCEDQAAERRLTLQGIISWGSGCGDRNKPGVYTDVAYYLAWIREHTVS
T2 sequence (P00748 20-372 limits assumed): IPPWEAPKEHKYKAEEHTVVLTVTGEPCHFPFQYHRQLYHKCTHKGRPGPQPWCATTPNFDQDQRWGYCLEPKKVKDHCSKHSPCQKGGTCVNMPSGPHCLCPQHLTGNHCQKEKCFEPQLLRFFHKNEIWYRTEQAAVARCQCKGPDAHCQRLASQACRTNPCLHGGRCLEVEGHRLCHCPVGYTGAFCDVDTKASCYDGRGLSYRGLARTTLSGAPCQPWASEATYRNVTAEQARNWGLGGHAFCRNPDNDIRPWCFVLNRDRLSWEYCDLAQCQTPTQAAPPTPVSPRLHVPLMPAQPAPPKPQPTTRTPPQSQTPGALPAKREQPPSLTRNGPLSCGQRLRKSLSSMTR

Chain of human FXa (P00742 235-488 limits assumed): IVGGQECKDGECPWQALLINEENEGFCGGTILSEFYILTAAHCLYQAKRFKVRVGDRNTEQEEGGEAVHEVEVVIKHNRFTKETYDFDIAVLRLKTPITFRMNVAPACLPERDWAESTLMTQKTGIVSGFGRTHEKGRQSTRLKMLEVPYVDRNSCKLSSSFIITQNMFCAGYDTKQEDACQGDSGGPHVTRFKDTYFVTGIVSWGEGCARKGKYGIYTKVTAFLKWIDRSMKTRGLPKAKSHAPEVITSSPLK
Chain of human FXa (P00742 41-179 limits assumed): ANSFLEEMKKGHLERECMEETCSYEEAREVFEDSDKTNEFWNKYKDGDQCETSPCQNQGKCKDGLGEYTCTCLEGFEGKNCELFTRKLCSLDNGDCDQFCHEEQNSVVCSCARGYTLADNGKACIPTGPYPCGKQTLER
Chain of Human FVIIa (P08709 213-466 limits assumed): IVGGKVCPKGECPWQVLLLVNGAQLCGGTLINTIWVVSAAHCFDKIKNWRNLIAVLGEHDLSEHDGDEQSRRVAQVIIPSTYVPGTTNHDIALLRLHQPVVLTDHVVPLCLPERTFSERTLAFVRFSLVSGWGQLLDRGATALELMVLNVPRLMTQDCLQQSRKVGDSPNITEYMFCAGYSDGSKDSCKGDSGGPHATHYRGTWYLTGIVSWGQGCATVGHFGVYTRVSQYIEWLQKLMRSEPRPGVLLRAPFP
Chain of Human FVIIa (P08709 61-212 limits assumed): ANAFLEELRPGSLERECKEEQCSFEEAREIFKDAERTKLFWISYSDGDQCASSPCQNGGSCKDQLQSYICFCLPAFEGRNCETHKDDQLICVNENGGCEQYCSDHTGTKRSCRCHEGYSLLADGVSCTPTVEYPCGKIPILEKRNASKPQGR
Chain of Human FVIIa (P13726 33-295 partner): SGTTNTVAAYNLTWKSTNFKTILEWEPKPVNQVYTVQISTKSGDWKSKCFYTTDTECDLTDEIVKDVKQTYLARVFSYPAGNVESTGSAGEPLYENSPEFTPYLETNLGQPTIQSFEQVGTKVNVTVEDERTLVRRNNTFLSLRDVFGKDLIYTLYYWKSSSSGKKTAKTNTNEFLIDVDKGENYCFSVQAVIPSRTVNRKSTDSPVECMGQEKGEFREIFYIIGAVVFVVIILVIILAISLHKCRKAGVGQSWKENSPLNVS
Chain of Human FXIa (P03951 388-625 limits assumed): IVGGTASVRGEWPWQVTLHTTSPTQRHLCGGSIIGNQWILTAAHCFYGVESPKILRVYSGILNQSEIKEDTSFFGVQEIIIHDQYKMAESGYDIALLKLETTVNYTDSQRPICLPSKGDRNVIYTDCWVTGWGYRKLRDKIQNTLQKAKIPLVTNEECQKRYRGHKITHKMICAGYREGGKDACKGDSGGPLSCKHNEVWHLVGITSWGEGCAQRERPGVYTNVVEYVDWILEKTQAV
Chain of Human FXIa (P03951 19-387 limits assumed): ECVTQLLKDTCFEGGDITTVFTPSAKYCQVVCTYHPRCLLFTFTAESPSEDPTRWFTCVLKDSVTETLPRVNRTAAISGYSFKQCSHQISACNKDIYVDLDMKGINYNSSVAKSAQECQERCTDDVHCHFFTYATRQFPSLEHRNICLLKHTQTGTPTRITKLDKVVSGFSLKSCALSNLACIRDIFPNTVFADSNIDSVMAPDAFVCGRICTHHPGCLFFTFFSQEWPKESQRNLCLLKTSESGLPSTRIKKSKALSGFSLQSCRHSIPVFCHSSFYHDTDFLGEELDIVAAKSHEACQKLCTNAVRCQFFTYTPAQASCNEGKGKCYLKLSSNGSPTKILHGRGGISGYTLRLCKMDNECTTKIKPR
Chain of Human FIXa (P00740 227-461 limits assumed): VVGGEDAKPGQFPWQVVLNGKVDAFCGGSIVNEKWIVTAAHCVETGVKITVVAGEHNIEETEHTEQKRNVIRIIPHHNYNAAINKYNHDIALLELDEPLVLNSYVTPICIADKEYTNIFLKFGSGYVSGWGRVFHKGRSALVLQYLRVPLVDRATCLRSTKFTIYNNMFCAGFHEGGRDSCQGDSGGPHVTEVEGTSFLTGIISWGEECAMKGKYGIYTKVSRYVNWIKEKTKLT
Chain of Human FIXa (P00740 47-191 limits assumed): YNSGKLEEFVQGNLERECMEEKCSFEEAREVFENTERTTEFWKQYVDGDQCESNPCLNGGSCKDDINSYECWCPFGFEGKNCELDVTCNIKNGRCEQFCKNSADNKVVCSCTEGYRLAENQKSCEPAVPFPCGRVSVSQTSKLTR

Row | SMILES | PT, concentration doubling the clotting time (human plasma) [µM] | Selectivity Index (Human FVIIa) | Selectivity Index (Human FXIa) | IC50 (Bovine Trypsin) [nM] | Selectivity Index (Bovine Trypsin; FXa over Bovine Trypsin) | selectivity against trypsin (Bovine Trypsin; FXa over trypsin) | Selectivity Index (Human FIXa) | Selectivity Index (Human FIIa) | Ki (human FXa) [nM] | fold decrease in IC50 relative to inhibitor 13 (human FXa; FXa inhibition, relative to 13 (IC50 = 16.4 μM)) | selectivity for FXa inhibition over other coagulation enzymes (human FXa; over FIIa, FVIIa, FIXa, FXIa, and FXIIa) | selectivity against chymotrypsin (Bovine Chymotrypsin) [fold] | Selectivity Index (Human FXIIa)
1 | CN(C)Cc1nccn1-c1ccc(NC(=O)c2cc(C(F)(F)F)nn2-c2ccc3onc(N)c3c2)c(F)c1 [razaxaban, 1-(3′-aminobenzisoxazol-5′-yl)-3-trifluoromethyl-N-[2-fluoro-4-[(2′-dimethylamino-methyl)imidazol-1-yl]phenyl]-1H-pyrazole-5-carboxyamide hydrochloride] | 3.8 |  |  |  |  |  |  |  |  |  |  |  | 
2 | O=C(Nc1ccc(N2CCOCC2=O)cc1)[C@H]1Cc2ccccc2CN1C(=O)Cc1ccc(Cl)cc1 [Inhibitor 47, (R)-2-(2-(4-chlorophenyl)acetyl)-N-(4-(3-oxomorpholino)phenyl)-1,2,3,4-tetrahydro-isoquinoline-3-carboxamide] |  | >3703 | >1852 | > 100000 | >370 | at least 370 fold | >3703 | >1852 | 135 | ~ 60 fold | at least 1852 fold | ≥ 279 | >1852

Reference: publication PMC3408863 (European journal of medicinal chemistry, 2012)
